From US9956229B2, “Acyclic cucurbit[n]uril type molecular containers to treat intoxication and decrease relapse rate in substance abuse disorders” (UNIVERSITY OF MARYLAND, COLLEGE PARK, priority 2014, dated 2018)

Assays:
[1] = Direct 1H NMR titration, 1:1 binding model; settings: 20 mM NaH2PO4 buffered (pH 7.4) D2O
Method: A direct titration was performed between the host and guest. The concentration of the host was kept constant while varying the concentration of the guest and the change in chemical shift of a selected host signal was measured. The change in chemical shift as a function of guest concentration was fitted to a 1:1 binding model to determine the Ka. In some cases, the concentration of guest was fixed and host concentration was varied, depending on the availability of a suitable ^1H NMR peak whose chemical shift change could be easily monitored.
1:1 Binding Model for NMR

ketamine anesthesia = test: EEG power and mean arterial pressure during continuous ketamine infusion; format: in vivo, rat; settings: escalating phenylephrine infusion 4 to 10 μg/kg/min; n=3

| Compound | Binding Constant with Host (Ka), morphine [1] | Binding Constant with Host (Ka), cocaine ([1]; 1:1 model) | Binding Constant with Host (Ka), ketamine ([1]; 1:1 model) | Binding Constant with Host (Ka), methamphetamine ([1]; 1:1 model) | Binding Constant with Host (Ka), phencyclidine ([1]; 1:1 model) | Binding Constant with Host (Ka), ketamine ([1]; 1:1 model, listed as 4-suldo calix[4]arene) | effect on MAP and EEG power during steady state shallow ketamine anesthesia (ketamine anesthesia) |
| --- | --- | --- | --- | --- | --- | --- | --- |
| O=S(=O)(O)c1cc2c(O)c(c1)Cc1cc(S(=O)(=O)O)cc(c1O)Cc1cc(S(=O)(=O)O)cc(c1O)Cc1cc(S(=O)(=O)O)cc(c1O)C2 [4-sulfo calix[4]arene] | (4.9±0.3)×10^4 M^−1 | (4.3±1.5)×10^4 M^−1 | ~10^5 M^−1 | (3.8±0.6)×10^4 M^−1 | (5.0±0.6)×10^4 M^−1 | ~10^5 M^−1 | – |
| CNC[C@H](O)c1cccc(O)c1 [phenylephrine] | – | – | – | – | – | – | significant MAP increases without effects on EEG power |
| O=C1N2CN3C(=O)N4CN5C(=O)N6CN7C(=O)N8CN9C(=O)N%10CN%11C(=O)N%12CN%13C(=O)N%14CN1C1C2N2CN%15C(=O)N(CN%16C(=O)N(CN%17C(=O)N(CN%18C(=O)N(CN%19C(=O)N(CN%20C(=O)N(CN1C2=O)C%14C%13%20)C%12C%11%19)C%10C9%18)C8C7%17)C6C5%16)C4C3%15 (centres unmarked) [CB[7], cucurbit[7]uril] | <10^3 M^−1 | – | – | – | – | – | – |
